Test results reported in article PMC2533715, “Suppressive Effects of Selected Food Phytochemicals on CD74 Expression in NCI-N87 Gastric Carcinoma Cells” (Journal of Clinical Biochemistry and Nutrition, 2008).
Where two headings read alike, the source gives them in different places.

Assays:
Cell viability (MTT) = settings: human
[1] = tested on: NCI-N87 gastric carcinoma cells; assay: Cell viability (MTT); settings: NCI-N87 cells, 48 h
CD74 = assay: Cell-based ELISA for constitutive CD74 expression; design: species or system human
H. pylori = settings: cited from earlier work
in vitro = settings: human
NF-κB [2] = tested on: NF-κB; design: method as in PMID 12106602; settings: MKN45 gastric carcinoma cells co-cultured with H. pylori; cited from earlier work
NF-κB [3] = tested on: NF-κB; design: method as in PMID 15589482, PMID 16317159, PMID 9521814, PMID 17420607; settings: several cell lines; cited from earlier work
[4] = tested on: H. pylori-infected human gastric mucosal cells; design: method as in PMID 17028789; settings: cited from earlier work
[5] = NCI-N87 gastric carcinoma cells
[6] = 4 µM, 48 h, NCI-N87 cells; mean ± average deviation
[7] = 20 µM, 48 h, NCI-N87 cells; mean ± average deviation
[8] = 100 µM, 48 h, NCI-N87 cells; mean ± average deviation
[9] = NCI-N87 cells, 48 h; mean of duplicate experiments; unit printed in b25 only; read-out: IC50 (50% inhibitory concentration) for constitutive CD74 expression

Row | SMILES | viability at 48 h, 4 µM (Cell viability (MTT); [5]) [%] | viability at 48 h, 20 µM (Cell viability (MTT); [5]) [%] | viability at 48 h, 100 µM (Cell viability (MTT); [5]) [%] | IR (%) inhibition rate of CD74 expression (CD74; [6]) | IR (%) inhibition rate of CD74 expression (CD74; [7]) [%] | IR (%) inhibition rate of CD74 expression (CD74; [8]) [%] | IC50 (CD74; [9]) [µM] | CC50 at 48 h (Cell viability (MTT)) [µM] | further results
1 | Oc1cc(O)c2c(c1)O[C@@H](c1ccc(O)c(O)c1)[C@H](O)C2 [(−)-Catechin] | 97 ± 2.5 | 97 ± 3.3 | 89 ± 5.9 | −6.4 ± 2.0% | 40 ± 2.1 | 65 ± 0.8 | 69.2 | – | CC50 at 48 h (Cell viability (MTT); [5]): > 100 µM; Cytotoxicity (in words) [1]: Marginal cytotoxicity; IR (%) inhibition rate of CD74 expression (CD74; 20 µM, 48 h, NCI-N87 cells; mean ± average deviation; listed as (−)-catechin): 40–65%; Suppression of CD74 expression (in words) (CD74; NCI-N87 cells, 48 h): suppressive only at a high concentration
2 | C=C[C@H](OC(C)=O)c1ccc(OC(C)=O)cc1 [ACA, 1'-acetoxychavicol acetate] | 92 ± 3.4 | 20 ± 0.2 | 6.1 ± 0.3 | 16 ± 1.6% | – | – | < 20 | – | CC50 at 48 h (Cell viability (MTT); [5]): 25 µM
3 | O=C1O[C@H]([C@@H](O)CO)C(O)=C1O [Ascorbic acid] | 97 ± 1.7 | 94 ± 0.3 | 86 ± 5.8 | –12 ± 3.5% | 5.4 ± 3.8 | 6.8 ± 1.8 | > 100 | > 100 | IR (%) inhibition rate of CD74 expression (CD74; 100 µM, 48 h, NCI-N87 cells; mean ± average deviation; listed as ascorbic acid): did not suppress CD74; H. pylori colonization and subsequent inflammation (H. pylori; Mongolian gerbils): reduced
4 | CC(C)=CCC/C(C)=C/COc1ccc2ccc(=O)oc2c1 [Auraptene] | 96 ± 2.7 | 79 ± 4.5 | 18 ± 0.4 | 2.4 ± 2.0% | 50 ± 0.4 | – | 19.8 | 59.2 | IR (%) inhibition rate of CD74 expression (CD74; 20 µM, 48 h, NCI-N87 cells; mean ± average deviation; listed as auraptene): 40–65%; Suppression of CD74 expression (in words) (CD74; NCI-N87 cells, 48 h): significant activity; H. pylori colonization (H. pylori; in vivo): reduce
5 | S=C=NCc1ccccc1 [BITC, benzyl isothiocyanate] | 96 ± 3.4 | 56 ± 7.9 | – | –19 ± 0.6% | – | – | < 20 | 44.3 | viability at 48 h, 100 µM (in vitro): 6.1 ± 1.3%
6 | C=CCC/C(=N/OS(=O)(=O)O)S[C@@H]1O[C@H](CO)[C@@H](O)[C@H](O)[C@H]1O [BUGLS, gluconapin] | 88 ± 6.9 | 80 ± 3.5 | 79 ± 5.6 | –15 ± 0.0% | −19 ± 2.5 | 4.0 ± 1.0 | > 100 | – | CC50 at 48 h (Cell viability (MTT); [5]): > 100 µM
7 | C=CCCN=C=S [BUITC, butenyl isothiocyanate] | 71 ± 5.8 | 73 ± 3.3 | 44 ± 2.4 | –9.0 ± 0.4% | 2.3 ± 0.8 | – | – | 81.5 | IC50 (CD74; read-out: IC50 (50% inhibitory concentration) for constitutive CD74 expression; NCI-N87 cells, 48 h; mean of duplicate experiments; unit printed in b25 only): > 100 µM
8 | Cn1c(=O)c2c(ncn2C)n(C)c1=O [Caffeine] | 100 ± 2.6 | 100 ± 2.2 | 87 ± 1.9 | 10 ± 7.7% | 22 ± 6.9 | 41 ± 9.2 | > 100 | – | –
9 | COc1cc(/C=C/C(=O)CC(=O)/C=C/c2ccc(O)c(OC)c2)ccc1O [Curucumin, curcumin] | 89 ± 1.1 | 12 ± 1.9 | 14 ± 6.8 | 21 ± 8.0% | – | – | < 20 | – | CC50 at 48 h (in vitro): 44.3 µM
10 | COc1cc(/C=C/C(=O)O)ccc1O [Ferulic acid] | 96 ± 2.3 | 93 ± 0.7 | 82 ± 5.9 | −5.1 ± 4.3% | 15 ± 5.8 | 20 ± 3.8 | > 100 | > 100 | –
11 | O=C(O)c1cc(O)c(O)c(O)c1 [Gallic acid] | 97 ± 0.2 | 73 ± 2.4 | 97 ± 2.1 | 15 ± 2.4% | 57 ± 3.7 | 47 ± 8.3 | 96.4 | > 100 | IR (%) inhibition rate of CD74 expression (CD74; 20 µM, 48 h, NCI-N87 cells; mean ± average deviation; listed as gallic acid): 40–65%
12 | O=c1c(-c2ccc(O)cc2)coc2cc(O)cc(O)c12 [Genistein] | 100 ± 0.4 | 84 ± 1.5 | 55 ± 4.6 | 8.6 ± 7.8% | 49 ± 7.2 | – | 20.5 | > 100 | IR (%) inhibition rate of CD74 expression (CD74; 20 µM, 48 h, NCI-N87 cells; mean ± average deviation; listed as genistein): 40–65%; NF-κB activation (NF-κB [2]): decreased
13 | O=c1cc(-c2ccc(O)c(O)c2)oc2cc(O)cc(O)c12 [Luteolin] | 99 ± 2.9 | 81 ± 4.7 | 61 ± 1.5 | 4.0 ± 5.1% | 55 ± 1.2 | – | 18.4 | – | NF-κB inhibition (NF-κB [3]): markedly inhibit; IR (%) inhibition rate of CD74 expression (CD74; 20 µM, 48 h, NCI-N87 cells; mean ± average deviation; listed as luteolin): 40–65%; CC50 at 48 h (in vitro): > 100 µM
14 | COc1ccc(-c2cc(=O)c3c(OC)c(OC)c(OC)c(OC)c3o2)cc1OC [Nobiletin] | 96 ± 0.3 | 93 ± 0.5 | 58 ± 5 | 1.8 ± 2.9% | 54 ± 5.0 | – | 18.8 | > 100 | NF-κB inhibition (NF-κB [3]): markedly inhibit; IR (%) inhibition rate of CD74 expression (CD74; 20 µM, 48 h, NCI-N87 cells; mean ± average deviation; listed as nobiletin): 40–65%; Suppression of CD74 expression (in words) (CD74; NCI-N87 cells, 48 h): significant activity
15 | O=S(=O)(O)O/N=C(/CCc1ccccc1)S[C@@H]1O[C@H](CO)[C@@H](O)[C@H](O)[C@H]1O [PEGLS, gluconasturtiin] | 99 ± 1.4 | 88 ± 1.7 | 90 ± 1.4 | −11 ± 4.4% | −25 ± 1.3 | −13 ± 3.8 | > 100 | – | CC50 at 48 h (Cell viability (MTT); [5]): > 100 µM
16 | S=C=NCCc1ccccc1 [PEITC, phenetyl isothiocyanate] | – | – | – | −17 ± 2.3% | – | – | < 20 | 61.3 | viability at 48 h, 4 µM (in vitro): 97 ± 4.8%; viability at 48 h, 20 µM (in vitro): 43 ± 1.8%; viability at 48 h, 100 µM (in vitro): 37 ± 2.2%
17 | O=c1c(O)c(-c2ccc(O)c(O)c2)oc2cc(O)cc(O)c12 [Quercetin] | 100 ± 3 | 100 ± 3 | 51 ± 0.5 | 3.7 ± 0.0% | 51 ± 4.7 | – | 19.8 | > 100 | NF-κB inhibition (NF-κB [3]): markedly inhibit; N-methyl-N’-nitro-N-nitrosoguanidine-induced inflammation [4]: reduced; IR (%) inhibition rate of CD74 expression (CD74; 20 µM, 48 h, NCI-N87 cells; mean ± average deviation; listed as quercetin): 40–65%
18 | C[C@@H]1O[C@@H](OC[C@H]2O[C@@H](Oc3c(-c4ccc(O)c(O)c4)oc4cc(O)cc(O)c4c3=O)[C@H](O)[C@@H](O)[C@@H]2O)[C@H](O)[C@H](O)[C@H]1O [Rutin] | 97 ± 1.2 | 100 ± 1.1 | 80 ± 4.7 | −4.3 ± 2.8% | −3.0 ± 0.0 | 11 ± 4.5 | > 100 | > 100 | –
19 | COc1ccc(-c2cc(=O)c3c(OC)c(OC)c(OC)c(OC)c3o2)cc1 [Tangeretin] | 98 ± 2.7 | 100 ± 0.5 | 63 ± 3.1 | −3.3 ± 3.3% | 21 ± 3.1 | – | 39.5 | > 100 | Suppression of CD74 expression (in words) (CD74; NCI-N87 cells, 48 h): significant activity
20 | C[C@H]1[C@H](C)CC[C@]2(C(=O)O)CC[C@]3(C)C(=CC[C@@H]4[C@@]5(C)CC[C@H](O)C(C)(C)[C@@H]5CC[C@]43C)[C@H]12 [Ursolic acid] | 91 ± 1.6 | 38 ± 1.1 | 9.7 | 35 ± 6.1% | – | – | < 20 | – | CC50 at 48 h (in vitro): 35.4 µM
21 | C/C1=C\CC(C)(C)/C=C/C(=O)/C(C)=C/CC1 [Zerumbone] | 100 ± 0.4 | 77 ± 0.3 | 16 ± 1.1 | 6.6 ± 0.8% | 57 ± 0.2 | – | 17.7 | – | NF-κB inhibition (NF-κB [3]): markedly inhibit; CC50 at 48 h (Cell viability (MTT); [5]): 60.5 µM; IR (%) inhibition rate of CD74 expression (CD74; 20 µM, 48 h, NCI-N87 cells; mean ± average deviation; listed as zerumbone): 40–65%
22 | CC(C)=CC(=O)CC(C)c1ccc(C)cc1 (stereo not shown) [ar-Turmerone] | 97 ± 4.1 | 100 ± 3.2 | 57 ± 1.3 | 22 ± 0.5% | 39 ± 1.8 | – | 30.8 | > 100 | –
